Source: the supplement of paper PMC10307832

How the values were obtained:
Assay in all cases: relative viability (nuclei count vs DMSO), 5 days (fraction); higher = more cells survive
Kobe2602 + Tozasertib = compound: C1=CC(=CC=C1NC(=S)NNC2=C(C=C(C=C2[N+](=O)[O-])C(F)(F)F)[N+](=O)[O-])F [Kobe2602] + Cc1cc(Nc2cc(N3CCN(C)CC3)nc(Sc3ccc(NC(=O)C4CC4)cc3)n2)n[nH]1 [Tozasertib] (partner 0.1 µM)
Outline: (§1)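 Values are medians from duplicate plates. Each reflects relative viability, defined as the nuclei count of treated wells over that of vehicle wells. Lung cancer cell lines in 1536-well plates were pin-tool dosed one day after seeding with one drug alone or with a fixed anchor-drug dose plus five library-drug doses (not always all listed) in √10 steps, then fixed, stained and imaged at 4× after 5 days.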

Kobe2602 + Olaparib = compound: C1=CC(=CC=C1NC(=S)NNC2=C(C=C(C=C2[N+](=O)[O-])C(F)(F)F)[N+](=O)[O-])F [Kobe2602] + O=C(c1cc(Cc2n[nH]c(=O)c3ccccc23)ccc1F)N1CCN(C(=O)C2CC2)CC1 [Olaparib] (partner 8 µM)
Outline: as §1

[1] = compound: COc1cc2nccc(Oc3ccc(NC(=O)C4(C(=O)Nc5ccc(F)cc5)CC4)cc3)c2cc1OC [Cabozantinib] + CC(=O)c1c(C)c2cnc(Nc3ccc(N4CCNCC4)cn3)nc2n(C2CCCC2)c1=O [Palbociclib] (partner 0.5 µM)
Outline: as §1

Zosuquidar + Navitoclax = compound: O[C@@H](COc1cccc2ncccc12)CN1CCN([C@@H]2c3ccccc3[C@@H]3[C@H](c4ccccc42)C3(F)F)CC1 [Zosuquidar] + CC1(C)CCC(c2ccc(Cl)cc2)=C(CN2CCN(c3ccc(C(=O)NS(=O)(=O)c4ccc(N[C@H](CCN5CCOCC5)CSc5ccccc5)c(S(=O)(=O)C(F)(F)F)c4)cc3)CC2)C1 [Navitoclax] (partner 0.5 µM)
Outline: as §1

## UMC-11
Kobe2602 + Tozasertib; first compound 0.2 µM
  relative viability: 0.215
Kobe2602 + Tozasertib; first compound 0.6325 µM
  relative viability: 0.219
Kobe2602 + Tozasertib; first compound 2 µM
  relative viability: 0.189
Kobe2602 + Tozasertib; first compound 6.325 µM
  relative viability: 0.197
Kobe2602 + Tozasertib; first compound 20 µM
  relative viability: 0.211
Kobe2602 + Olaparib; first compound 0.2 µM
  relative viability: 0.404
Kobe2602 + Olaparib; first compound 0.6325 µM
  relative viability: 1.07
Kobe2602 + Olaparib; first compound 2 µM
  relative viability: 0.384
Kobe2602 + Olaparib; first compound 6.325 µM
  relative viability: 0.366
Kobe2602 + Olaparib; first compound 20 µM
  relative viability: 1.02
[1]; first compound 0.02 µM
  relative viability: 0.352
[1]; first compound 0.06325 µM
  relative viability: 0.324
[1]; first compound 0.2 µM
  relative viability: 0.336
[1]; first compound 0.6325 µM
  relative viability: 0.312
[1]; first compound 2 µM
  relative viability: 0.334
Zosuquidar + Navitoclax; first compound 0.01 µM
  relative viability: 0.323
Zosuquidar + Navitoclax; first compound 0.03162 µM
  relative viability: 0.294
Zosuquidar + Navitoclax; first compound 0.1 µM
  relative viability: 0.341
Zosuquidar + Navitoclax; first compound 0.3162 µM
  relative viability: 0.339
Zosuquidar + Navitoclax; first compound 1 µM
  relative viability: 0.292
